The assay has as its target T1, human GPR119 (hGPR119) (Homo sapiens, UniProt Q8TDV5).
T1 construct: expressed in transfected cells
T1 sequence (Q8TDV5 1-335): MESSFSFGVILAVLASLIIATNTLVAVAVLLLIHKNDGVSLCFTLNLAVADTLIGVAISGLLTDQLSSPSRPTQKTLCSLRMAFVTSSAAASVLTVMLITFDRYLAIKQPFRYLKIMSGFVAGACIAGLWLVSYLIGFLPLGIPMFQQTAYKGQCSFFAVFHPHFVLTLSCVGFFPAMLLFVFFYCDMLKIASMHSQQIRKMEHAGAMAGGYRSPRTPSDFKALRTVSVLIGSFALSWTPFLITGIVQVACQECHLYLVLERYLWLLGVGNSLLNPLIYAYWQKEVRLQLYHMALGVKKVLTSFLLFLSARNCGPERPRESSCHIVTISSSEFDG
Nature of the assay: cAMP accumulation assay (cAMP Gs dynamic HTRF kit). The format is cell-based. The conditions noted are these: CHO-K1 cells stably expressing hGPR119, 4-parameter fit; for Emax: 1 h, % activity normalized to Max/Min controls; for EC50: cAMP accumulation. On the procedure: CHO-K1 cells stably expressing human GPR119 (hGPR119) were prepared by transfection of a GPR119-carrying plasmid using Lipofectamine 2000 (following manufacturer instructions). A stable cell line was established using the limiting dilution method with geneticine selection. Assay-ready frozen (ARF) cells were prepared and used throughout the study.
The assay was performed in a 384-well plate format using the cAMP Gs dynamic assay kit from Cisbio. ARF cells expressing hGPR119 were thawed, washed and then resuspended in cAMP stimulation buffer at a cell density of 1.1×10^6 cells/mL. Cells were plated at a density of ˜10,000 cells/well (9 μL/well). Dose response curves for the tested compounds were prepared in a cAMP stimulation buffer, containing 0.1% Tween 80 at 4 fold the final concentration. The compounds were then transferred to the cell plates using BRAVO (3 μL/well) and the plates were incubated for 60 minutes at 37° C./5% CO2. Detection buffer (10 μL, prepared as described in the cAMP Gs dynamic kit) were added to each well, and the plates were incubated at ambient temperature for 1 hr.
RT-FRET was measured using a ClarioSTAR plate reader, calculating the ratio between emissions at 665 nm and 620 nm (HTRF ratio). The HTRF ratio for positive (Max) and negative (Min) controls were used to normalize HTRF data and generate values for % activity. EC50 and Max activity values were determined using a standard 4-parameter fit.
On the technique in general: Changes in cAMP serve as a functional read-out for many G protein-coupled receptors.

The text below walks through data of patent US20230061736A1, “GPR119 AGONISTS” (Kallyope, Inc., priority 2019, published 2023).

For orientation: Emax means the size of the effect at its maximum, as opposed to the concentration needed. Broadly, the EC50 is the concentration needed to bring the measured effect to its halfway point. `O=C(Cc1ccc(OCCCC2CCN(c3ncc(Cl)cn3)CC2)cc1F)N1CC(CCNCC(O)(CO)CO)C1` [Example 58, 2-(4-(3-(1-(5-chloropyrimidin-2-yl)piperidin-4-yl)propoxy)-2-fluorophenyl)-1-(3-(2-((2,3-dihydroxy-2-(hydroxymethyl)propyl)amino)ethyl)azetidin-1-yl)ethan-1-one] had an Emax of at least 130% and an EC50 of 100 to 1000 nM.
In the case of `O=C(Cc1ccc(OCCCC2CCN(c3ncc(Cl)cn3)CC2)cc1F)NCCCC(=O)NC(CO)(CO)CO` [Example 22, 4-[[2-[4-[3-[1-(5-chloropyrimidin-2-yl)-4-piperidyl]propoxy]-2-fluoro-phenyl]acetyl]amino]-N-[2-hydroxy-1,1-bis(hydroxymethyl)ethyl]butanamide], the Emax was at least 130% and the EC50 is 100 to 1000 nM.
`O=C(Cc1ccc(OCCCC2CCN(c3ncc(Cl)cn3)CC2)cc1F)N1CC[C@@H](CNCC(CO)(CO)CO)C1` [Example 147, 2-[4-[3-[1-(5-chloropyrimidin-2-yl)-4-piperidyl]propoxy]-2-fluoro-phenyl]-1-[(3S)-3-[[[3-hydroxy-2,2-bis(hydroxymethyl)propyl]amino]methyl]pyrrolidin-1-yl]ethanone] registered an Emax of 100 to 130% and an EC50 of at most 100 nM.
`O=C(Cc1c(F)cc(OCCCC2CC23CCN(c2ncc(Cl)cn2)CC3)cc1F)N1CC(CNC[C@H](O)[C@@H](O)[C@H](O)[C@H](O)CO)C1` (stereo partly shown) [Example 143] gave an Emax of 100 to 130% and an EC50 of 100 to 1000 nM.
The like results for `O=C(CC1CN(C(=O)Cc2ccc(OCCCC3CCN(c4ncc(Cl)cn4)CC3)cc2F)C1)NC(CO)(CO)CO` [Example 32, 2-[1-[2-[4-[3-[1-(5-chloropyrimidin-2-yl)-4-piperidyl]propoxy]-2-fluoro-phenyl]acetyl]azetidin-3-yl]-N-[2-hydroxy-1,1-bis(hydroxymethyl)ethyl]acetamide] were, in that order, 100 to 130% and 100 to 1000 nM.
The compound `CCCc1cnc(N2CCC(CCCOc3cc(F)c(CC(=O)NCCCCC[N+](CC)(CC)CC)c(F)c3)CC2)nc1` [Example 4, 5-[[2-[2,6-difluoro-4-[3-[1-(5-propylpyrimidin-2-yl)-4-piperidyl]propoxy]phenyl]acetyl]amino] pentyl-triethyl-ammonium] gave an Emax of 100 to 130% and an EC50 of 100 to 1000 nM.
The like results for `O=C(NC[C@H](O)[C@@H](O)[C@H](O)[C@H](O)CO)[C@H]1CCN(C(=O)Cc2ccc(OCCCC3CCN(c4ncc(Cl)cn4)CC3)cc2F)C1` [Example 127, (3S)-1-[2-[4-[3-[1-(5-chloropyrimidin-2-yl)-4-piperidyl]propoxy]-2-fluoro-phenyl]acetyl]-N-[(2S,3R,4R,5R)-2,3,4,5,6-pentahydroxyhexyl]pyrrolidine-3-carboxamide] were, in that order, at least 130% and at most 100 nM.
Regarding `O=C(Cc1ccc(OCCCC2CCN(c3ncc(Cl)cn3)CC2)cc1F)N1CCC(O)(C(=O)NC[C@H](O)[C@@H](O)[C@H](O)[C@H](O)CO)C1` (stereo partly drawn) [Example 181, 1-[2-[4-[3-[1-(5-chloropyrimidin-2-yl)-4-piperidyl]propoxy]-2-fluoro-phenyl]acetyl]-3-hydroxy-N-[(2S,3R,4R,5R)-2,3,4,5,6-pentahydroxyhexyl]pyrrolidine-3-carboxamide], the Emax fell in the range of 100 to 130% and the EC50 is at most 100 nM.
In turn, `O=C(Cc1ccc(OCCCC2CCN(c3ncc(Cl)cn3)CC2)cc1F)N1CC[C@H](CNC[C@H](O)[C@H](O)[C@H](O)CO)C1` [Example 168, 2-[4-[3-[1-(5-chloropyrimidin-2-yl)-4-piperidyl]propoxy]-2-fluoro-phenyl]-1-[(3R)-3-[[[(2S,3S,4R)-2,3,4,5-tetrahydroxypentyl]amino]methyl]pyrrolidin-1-yl]ethanone] yielded an Emax of 100 to 130% and an EC50 of at most 100 nM.
The like results for `O=C(NCCCCCS(=O)(=O)O)C1CN(C(=O)Cc2ccc(OCCCC3CCN(c4ncc(Cl)cn4)CC3)cc2F)C1` [Example 174, 5-[[1-[2-[4-[3-[1-(5-chloropyrimidin-2-yl)-4-piperidyl]propoxy]-2-fluoro-phenyl]acetyl]azetidine-3-carbonyl]amino]pentane-1-sulfonic acid] were, in that order, 100 to 130% and 100 to 1000 nM.
`O=C(Cc1ccc(OCCCC2CCN(c3ncc(Cl)cn3)CC2)cc1F)NCCO[C@H]1O[C@H](CO)[C@@H](O)[C@H](O)[C@@H]1O` (racemic) [Example 16, 2-[4-[3-[1-(5-chloropyrimidin-2-yl)-4-piperidyl]propoxy]-2-fluoro-phenyl]-N-[2-[rac-(2S,3S,4S,5S,6R)-3,4,5-trihydroxy-6-(hydroxymethyl)tetrahydropyran-2-yl]oxyethyl]acetamide] registered an Emax of 100 to 130% and an EC50 of 100 to 1000 nM.
`CCc1cnc(N2CCC(CCOCc3ccc(CC(=O)N4CC(CNC[C@H](O)[C@@H](O)[C@H](O)[C@H](O)CO)C4)cc3F)CC2)nc1` [Example 89]: the Emax is 50 to 100% and the EC50 fell in the range of 1000 to 10000 nM.
Compound `COC(=O)c1cnc(N2CCC(CCCOc3ccc(CC(=O)N4CC(CNC[C@H](O)[C@@H](O)[C@H](O)[C@H](O)CO)C4)c(F)c3)CC2)nc1` [Example 87, methyl 2-[4-[3-[3-fluoro-4-[2-oxo-2-[3-[[[(2S,3R,4R,5R)-2,3,4,5,6-pentahydroxyhexyl]amino]methyl]azetidin-1-yl]ethyl]phenoxy]propyl]-1-piperidyl]pyrimidine-5-carboxylate] came in with an Emax of 100 to 130% and an EC50 of 100 to 1000 nM.
`CCc1cnc(N2CCC(CCCOc3cc(F)c(CC(=O)N4CC(CNCCNC(=O)NC(CO)(CO)CO)C4)c(F)c3)CC2)nc1` [Example 68, 1-(1,3-dihydroxy-2-(hydroxymethyl)propan-2-yl)-3-(2-(((1-(2-(4-(3-(1-(5-ethylpyrimidin-2-yl)piperidin-4-yl)propoxy)-2,6-difluorophenyl)acetyl)azetidin-3-yl)methyl)amino)ethyl)urea] came in with an Emax of at least 130% and an EC50 of at most 100 nM.
`O=C(Cc1ccc(OCCC2CC23CCN(c2ncc(Cl)cn2)CC3)cc1F)N1CC(CNC[C@H](O)[C@@H](O)[C@H](O)[C@H](O)CO)C1` (stereo partly drawn) [Example 110, 2-[4-[2-[6-(5-chloropyrimidin-2-yl)-6-azaspiro[2.5]octan-2-yl]ethoxy]-2-fluoro-phenyl]-1-[3-[[[(2S,3R,4R,5R)-2,3,4,5,6-pentahydroxyhexyl]amino]methyl]azetidin-1-yl]ethanone] gave a maximal effect (Emax) of 100 to 130% and a concentration giving a half-maximal response (EC50) of 100 to 1000 nM.
The like results for `O=C(Cc1ccc(OCCCC2CCN(c3ncc(Cl)cn3)CC2)cc1F)NCCC(=O)NC(CO)(CO)CO` [Example 20, 3-[[2-[4-[3-[1-(5-chloropyrimidin-2-yl)-4-piperidyl]propoxy]-2-fluoro-phenyl]acetyl]amino]-N-[2-hydroxy-1,1-bis(hydroxymethyl)ethyl]propanamide] were, in that order, at least 130% and 100 to 1000 nM.
The like results for `O=C(CC1CN(C(=O)Cc2c(F)cc(OCCCC3CCN(c4ncc(Cl)cn4)CC3)cc2F)C1)NCC(O)(CO)CO` [Example 34, 2-[1-[2-[4-[3-[1-(5-chloropyrimidin-2-yl)-4-piperidyl]propoxy]-2,6-difluoro-phenyl]acetyl]azetidin-3-yl]-N-[2,3-dihydroxy-2-(hydroxymethyl)propyl]acetamide] were, in that order, at least 130% and at most 100 nM.
